Our source for the EC50 values is US20190031599A1, “INDANE DERIVATIVES AS MGLUR7 MODULATORS” (Takeda Pharmaceutical Company Limited, priority 2016, published 2019).

For the test, the target named is T1, human mGluR7 (Homo sapiens, UniProt Q14831).
T1 construct: expressed in transfected cells
The test is described as follows: mGluR7 assay: CRE-directed luciferase reporter gene assay, reduction of forskolin stimulated cAMP production. The test is classed as cell-based. To be noted: stable CHO cell line expressing the CRE-luc reporter and human mGluR7 genes; decrease of forskolin stimulated luminescence; 10-point concentration-response, duplicate wells. In a few lines: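 Stable CHO cell line co-expressing human mGluR7 and a CRE-luciferase reporter; compounds preincubated 15 min at 37 °C, then forskolin added and incubated 5 h at 37 °C. 10-point half-log concentration-response in duplicate, normalised to forskolin-alone (max) and forskolin plus tool mGluR7 agonist (min) controls.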

pEC50: −log10 of the molar value. Counter-ions that a name gives are not always drawn.

T1 sequence (Q14831 35-915): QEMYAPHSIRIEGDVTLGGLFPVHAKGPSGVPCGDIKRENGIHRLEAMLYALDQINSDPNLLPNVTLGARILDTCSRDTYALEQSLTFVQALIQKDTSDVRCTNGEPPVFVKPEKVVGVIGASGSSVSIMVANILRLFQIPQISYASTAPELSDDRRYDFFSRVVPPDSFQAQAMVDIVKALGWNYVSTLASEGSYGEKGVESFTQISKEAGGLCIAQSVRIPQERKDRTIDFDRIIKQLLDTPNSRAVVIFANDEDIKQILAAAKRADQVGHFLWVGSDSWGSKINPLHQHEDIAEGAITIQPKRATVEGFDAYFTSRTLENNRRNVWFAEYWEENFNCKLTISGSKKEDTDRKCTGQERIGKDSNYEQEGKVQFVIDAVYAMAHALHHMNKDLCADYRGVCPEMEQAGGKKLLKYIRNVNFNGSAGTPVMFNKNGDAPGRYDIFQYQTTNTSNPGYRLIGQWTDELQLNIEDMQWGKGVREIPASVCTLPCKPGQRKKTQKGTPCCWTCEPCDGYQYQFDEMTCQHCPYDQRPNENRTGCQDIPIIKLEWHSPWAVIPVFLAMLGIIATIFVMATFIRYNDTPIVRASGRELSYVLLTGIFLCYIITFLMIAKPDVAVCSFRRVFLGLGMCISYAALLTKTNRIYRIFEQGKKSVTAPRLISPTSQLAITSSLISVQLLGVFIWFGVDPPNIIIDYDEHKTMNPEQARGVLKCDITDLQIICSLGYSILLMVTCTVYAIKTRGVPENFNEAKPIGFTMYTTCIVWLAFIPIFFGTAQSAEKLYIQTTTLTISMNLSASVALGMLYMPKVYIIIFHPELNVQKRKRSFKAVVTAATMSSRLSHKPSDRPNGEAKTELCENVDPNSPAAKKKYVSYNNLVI

What is called pEC50 is −log10 of the EC50, conventionally taken in molar units. Read a high pEC50 as a low EC50. `COC1c2ccccc2CC1NC(=O)C(c1ccc(F)cc1)n1ncccc1=O` (single isomer, unassigned) [Example 131, 2-(4-fluorophenyl)-N-(trans)-(1-methoxy-2,3-dihydro-1H-inden-2-yl)-2-(6-oxo-1,6-dihydropyridazin-1-yl)acetamide] gave a negative-log EC50 (pEC50) of 7.05. To `CC(F)(C(=O)N[C@H]1Cc2ccccc2[C@@H]1N)c1ccc(F)cc1` (single isomer, unassigned) [Example 77] belongs 5.58; to `CCOC1c2ccccc2CC1NC(=O)[C@@H](C)c1ccc(F)cc1` (single isomer, unassigned) [Example 33], 7.41. To `C[C@H](C(=O)N[C@H]1Cc2ccccc2[C@@H]1NC(=O)OC(C)(C)C)c1ccc(F)cc1F` [Example 23, tert-butyl N-[(1S,2S)-2-[(2S)-2-(2,4-difluorophenyl)propanamido]-2,3-dihydro-1H-inden-1-yl]carbamate] belongs 7.74; to `N[C@H]1c2ccccc2C[C@@H]1NC(=O)C(c1ccc(F)cc1)N1CC(F)C1` (single isomer, unassigned) [Example 118], 5.54.

Regarding `CC(C)(C)OC(=O)N[C@H]1c2ccccc2C[C@@H]1NC(=O)C(c1ccc(F)cc1F)n1ccccc1=O` (single isomer, unassigned) [Example 48], the negative-log EC50 (pEC50) was 6.47. With `COC1c2ccccc2CC1NC(=O)[C@@H](NC(=O)C1CC1)c1ccc(F)cc1` (stereo in doubt) [Example 66, (2S)-2-(cyclopropylformamido)-2-(4-fluorophenyl)-N-(trans)-(1-methoxy-2,3-dihydro-1H-inden-2-yl)acetamide] the figure was 8.40; with `C[C@H](C(=O)N[C@H]1Cc2ccccc2[C@@H]1NC1CCC1)c1ccc(F)cc1F` [Example 91, (2S)—N-[(1S,2S)-1-(cyclobutylamino)-2,3-dihydro-1H-inden-2-yl]-2-(2,4-difluorophenyl)propanamide], 7.42; with `C[C@H](C(=O)N[C@H]1Cc2ccccc2[C@@H]1NCC1CC1)c1ccc(F)cc1` [Example 47, (2S)—N-[(1S,2S)-1-[(cyclopropylmethyl)amino]-2,3-dihydro-1H-inden-2-yl]-2-(4-fluorophenyl)propanamide], 7.68. With `CS(=O)(=O)C1c2ccccc2CC1NC(=O)C(OCC1CC1)c1ccccc1` (single isomer, unassigned) [Example 147, 2-(cyclopropylmethoxy)-N-(trans)-(1-methanesulfonyl-2,3-dihydro-1H-inden-2-yl)-2-phenylacetamide] the figure was 7.41; with `CCC(C(=O)N[C@@H]1Cc2ccccc2[C@H]1NC(=O)OC(C)(C)C)c1ccc(F)cc1F` (stereo partly drawn) [Example 41, tert-butyl N-[(1R,2R)-2-[2-(2,4-difluorophenyl)butanamido]-2,3-dihydro-1H-inden-1-yl]carbamate], 6.67; with `CC[C@H](C(=O)N[C@H]1Cc2ccccc2[C@@H]1N)c1ccc(F)cc1` [Example 52, (2S)—N-[(1S,2S)-1-amino-2,3-dihydro-1H-inden-2-yl]-2-(4-fluorophenyl)butanamide], 7.28. As for `N[C@H]1c2ccccc2C[C@@H]1NC(=O)C1(c2ccccc2Cl)CC1` [Example 79, N-[(1S,2S)-1-amino-2,3-dihydro-1H-inden-2-yl]-1-(2-chlorophenyl)cyclopropane-1-carboxamide], the pEC50 is 6.36. The compound `COC1c2ccccc2CC1NC(=O)C(c1ccc(F)cc1F)n1ncccc1=O` (single isomer, unassigned) [Example 126, 2-(2,4-difluorophenyl)-N-(trans)-(1-methoxy-2,3-dihydro-1H-inden-2-yl)-2-(6-oxo-1,6-dihydropyridazin-1-yl)acetamide] gave a pEC50 of 6.55. To `CCS(=O)(=O)C1c2ccccc2CC1NC(=O)[C@@H](OC)c1ccccc1` (stereo in doubt) [Example 150, (2S)—N-(trans)-(1-ethanesulfonyl-2,3-dihydro-1H-inden-2-yl)-2-methoxy-2-phenylacetamide] belongs 6.81.

The compound `COC1c2ccccc2CC1NC(=O)[C@@H](C)c1ccc(F)cc1` (stereo in doubt) [Example 39, (2S)-2-(4-fluorophenyl)-N-(cis)-(1-methoxy-2,3-dihydro-1H-inden-2-yl)propanamide] showed a pEC50 of 6.20. With `N[C@H]1c2ccccc2C[C@@H]1NC(=O)C(c1ccc(F)cc1F)n1ncccc1=O` (single isomer, unassigned) [Example 110] the figure was 5.94; with `C[C@H](C(=O)N[C@@H]1Cc2ccccc2[C@H]1S(C)(=O)=O)c1ccc(F)cc1` [Example 113, (2S)-2-(4-fluorophenyl)-N-[(1R,2R)-1-methanesulfonyl-2,3-dihydro-1H-inden-2-yl]propanamide], 7.42; with `COC1c2ccccc2CC1NC(=O)[C@@H](C)c1ccccc1` (single isomer, unassigned) [Example 8], 7.24. With `COC1c2ccccc2CC1NC(=O)[C@@H](C)c1ccccc1` (stereo in doubt) [Example 10, (2S)—N-((cis)-1-methoxy-2,3-dihydro-1H-inden-2-yl)-2-phenylpropanamide] the figure was 5.99; with `COC1c2ccccc2CC1NC(=O)C(c1ccc(F)cc1)n1ncccc1=O` (single isomer, unassigned) [Example 128, 2-(4-fluorophenyl)-N-(trans)-(1-methoxy-2,3-dihydro-1H-inden-2-yl)-2-(6-oxo-1,6-dihydropyridazin-1-yl)acetamide], 5.88; with `COC1c2ccccc2CC1NC(=O)C(c1ccc(F)cc1F)n1ncccc1=O` (single isomer, unassigned) [Example 124, 2-(2,4-difluorophenyl)-N-(trans)-(1-methoxy-2,3-dihydro-1H-inden-2-yl)-2-(6-oxo-1,6-dihydropyridazin-1-yl)acetamide], 5.98. With `C[C@H](C(=O)NC1Cc2ccccc2C1O)c1ccccc1` (single isomer, unassigned) [Example 4] the figure was 6.92.

With `COC1c2ccccc2CC1NC(=O)[C@@H](NC(=O)C1CC1)c1ccc(F)cc1` (single isomer, unassigned) [Example 101], the pEC50 is 8.22. To `N[C@H]1c2ccccc2C[C@@H]1NC(=O)C(c1ccc(F)cc1F)N1CC(OC(F)F)C1` (stereo partly drawn) [Example 119, N-[(1S,2S)-1-amino-2,3-dihydro-1H-inden-2-yl]-2-[3-(difluoromethoxy)azetidin-1-yl]-2-(2,4-difluorophenyl)acetamide] belongs 7.20.

Compound `N[C@H]1c2ccccc2C[C@@H]1NC(=O)C(c1ccc(F)cc1F)N1CC(F)(F)C1` (stereo partly drawn) [Example 103, N-[(1S,2S)-1-amino-2,3-dihydro-1H-inden-2-yl]-2-(3,3-difluoroazetidin-1-yl)-2-(2,4-difluorophenyl)acetamide formate] had a negative-log EC50 (pEC50) of 6.66. With `CCC(C(=O)N[C@@H]1Cc2ccccc2[C@H]1N)c1ccc(F)cc1F` (stereo partly drawn) [Example 17, N-[(1R,2R)-1-amino-2,3-dihydro-1H-inden-2-yl]-2-(2,4-difluorophenyl)butanamide hydrochloride] the figure was 6.71.
